The source of these data is ChEMBL document CHEMBL1156106 (J Med Chem, 2009).

The Ki is the dissociation constant of the complex between target and ligand, obtained from inhibition or displacement. The low end stands for tighter binding, the high end for weaker binding. Broadly, the ED50 is the dose that gives a 50% effect, or the effect in half of the subjects. Broadly, the IC50 is the concentration that inhibits the measured activity by half.

Assay [1] addresses Sodium-dependent noradrenaline transporter (Homo sapiens, UniProt P23975). Nature of the assay: Displacement of [125I]RTI55 from cloned human NET expressed in HEK293 cells. In kind it is cell-based. (In general: Displacement assays read how much labelled ligand stays bound in the presence of the test substance.)
The target of assay [2] is T1, Sodium-dependent serotonin transporter (Homo sapiens, UniProt P31645). The assay is described as follows: biochemical. In kind it is cell-based, HEK293.
Assay [3] deals with Sodium-dependent dopamine transporter (Homo sapiens, UniProt Q01959). The assay is described as follows: Displacement of [125I]RTI55 from cloned human DAT expressed in HEK293 cells. It counts as cell-based.
Assay [4] relates to Rattus norvegicus. Nature of the assay: Effect on behavioural activity in rat assessed as cocaine-induced lever response at 10 mg/kg, ip pretreated with cocaine for 15 mins by drug-discrimination studies. It counts as functional. The conditions noted are these: route intraperitoneal.
In assay [5] the test system is Mus musculus. Nature of the assay: Antidepressant activity in ip dosed mouse assessed as duration of locomotor activity. In kind it is functional.
Assay [6] has as its system Rattus norvegicus. The assay is described as follows: Effect on behavioural activity in rat assessed as cocaine-induced lever response at 5 mg/kg, ip pretreated with cocaine for 15 mins by drug-discrimination studies. It counts as functional. As to conditions: route intraperitoneal.
For assay [7], the system named is Rattus norvegicus. The assay is described as follows: Effect on behavioural activity in rat assessed as cocaine-induced lever response at 25 mg/kg, ip pretreated with cocaine for 15 mins by drug-discrimination studies. In kind it is functional. As to conditions: route intraperitoneal.
For assay [8], the system named is Mus musculus. The assay is described as follows: Antidepressant activity in ip dosed mouse assessed as stimulation of locomotor activity relative to cocaine. In kind it is functional.
The subject of assay [9] is Rattus norvegicus. Nature of the assay: Effect on behavioural activity in ip dosed rat assessed as cocaine-induced lever response pretreated with cocaine by drug-discrimination studies. It counts as functional.
The subject of assay [10] is Rattus norvegicus. Nature of the assay: Effect on behavioural activity in rat assessed as cocaine-induced lever response at 2.5 mg/kg, ip pretreated with cocaine for 15 mins by drug-discrimination studies. In kind it is functional. The conditions noted are these: route intraperitoneal.
The test system of assay [11] is Mus musculus. Nature of the assay: Antidepressant activity in ip dosed mouse assessed as time to reach peak stimulation of locomotor activity. In kind it is functional.
Assay [12] deals with Mus musculus. Nature of the assay: Antidepressant activity in ip dosed mouse assessed as stimulation of locomotor activity. In kind it is functional.
The subject of assay [13] is Rattus norvegicus. Nature of the assay: Effect on behavioural activity in rat assessed as cocaine-induced lever response at 50 mg/kg, ip pretreated with cocaine for 15 mins by drug-discrimination studies. As to conditions: route intraperitoneal. In kind it is functional.
Assay [14] has as its target T1, Sodium-dependent serotonin transporter. The assay is described as follows: Inhibition of [3H]serotonin reuptake at human SERT expressed in HEK293 cells. It counts as cell-based.

Sequence of Sodium-dependent dopamine transporter (Q01959 whole entry): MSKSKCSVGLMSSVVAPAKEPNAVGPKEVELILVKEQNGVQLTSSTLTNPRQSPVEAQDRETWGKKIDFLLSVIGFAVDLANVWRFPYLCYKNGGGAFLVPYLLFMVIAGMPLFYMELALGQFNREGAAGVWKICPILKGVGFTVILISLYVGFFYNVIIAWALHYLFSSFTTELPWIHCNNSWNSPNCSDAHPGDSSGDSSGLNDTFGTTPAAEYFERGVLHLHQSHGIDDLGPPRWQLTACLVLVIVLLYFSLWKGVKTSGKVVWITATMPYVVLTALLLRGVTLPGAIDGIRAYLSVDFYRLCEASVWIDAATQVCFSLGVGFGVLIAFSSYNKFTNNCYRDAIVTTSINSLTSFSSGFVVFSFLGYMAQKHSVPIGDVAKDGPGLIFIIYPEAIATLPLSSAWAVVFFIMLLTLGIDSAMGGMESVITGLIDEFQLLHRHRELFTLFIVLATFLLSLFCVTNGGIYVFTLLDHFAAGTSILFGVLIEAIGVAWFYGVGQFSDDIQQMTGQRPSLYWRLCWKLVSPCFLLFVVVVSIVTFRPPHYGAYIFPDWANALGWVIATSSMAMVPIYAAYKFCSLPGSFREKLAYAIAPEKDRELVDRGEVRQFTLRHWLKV
T1 sequence (P31645 whole entry): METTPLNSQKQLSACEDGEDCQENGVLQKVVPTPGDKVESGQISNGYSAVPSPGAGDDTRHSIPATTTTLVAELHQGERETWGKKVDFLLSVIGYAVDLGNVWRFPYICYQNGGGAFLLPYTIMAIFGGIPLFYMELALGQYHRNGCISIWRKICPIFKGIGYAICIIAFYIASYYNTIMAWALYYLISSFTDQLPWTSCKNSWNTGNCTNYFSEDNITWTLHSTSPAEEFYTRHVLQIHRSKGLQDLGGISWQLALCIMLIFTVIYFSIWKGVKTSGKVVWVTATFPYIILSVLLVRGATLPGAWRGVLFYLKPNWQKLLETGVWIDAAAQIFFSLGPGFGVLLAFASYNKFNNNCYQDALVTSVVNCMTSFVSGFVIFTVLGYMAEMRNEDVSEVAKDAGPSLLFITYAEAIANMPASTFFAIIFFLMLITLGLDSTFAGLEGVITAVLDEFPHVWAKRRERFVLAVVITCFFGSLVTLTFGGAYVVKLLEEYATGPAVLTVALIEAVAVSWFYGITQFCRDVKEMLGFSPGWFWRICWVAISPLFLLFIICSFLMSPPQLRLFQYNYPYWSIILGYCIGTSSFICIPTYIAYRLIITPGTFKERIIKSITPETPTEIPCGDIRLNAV
Sequence of Sodium-dependent noradrenaline transporter (P23975 whole entry): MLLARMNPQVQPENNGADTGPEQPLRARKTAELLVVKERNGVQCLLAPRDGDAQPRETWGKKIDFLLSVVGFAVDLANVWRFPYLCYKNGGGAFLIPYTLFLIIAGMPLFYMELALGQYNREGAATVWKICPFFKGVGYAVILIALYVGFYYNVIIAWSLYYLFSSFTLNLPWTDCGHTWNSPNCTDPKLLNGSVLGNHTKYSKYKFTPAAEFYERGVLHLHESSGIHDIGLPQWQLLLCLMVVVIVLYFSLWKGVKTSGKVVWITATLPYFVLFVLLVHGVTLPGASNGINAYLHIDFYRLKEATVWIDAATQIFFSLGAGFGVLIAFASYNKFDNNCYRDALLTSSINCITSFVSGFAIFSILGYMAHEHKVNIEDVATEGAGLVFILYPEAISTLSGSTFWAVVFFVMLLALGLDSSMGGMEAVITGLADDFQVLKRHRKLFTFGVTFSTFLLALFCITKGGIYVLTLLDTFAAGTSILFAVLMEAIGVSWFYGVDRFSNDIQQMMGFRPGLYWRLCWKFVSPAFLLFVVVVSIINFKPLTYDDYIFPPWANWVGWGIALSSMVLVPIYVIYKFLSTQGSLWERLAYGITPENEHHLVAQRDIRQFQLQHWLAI

Consider `CC(NC(C)(C)C)C(=O)c1cc(Cl)cc(Cl)c1` (stereo not drawn), for which the inhibition constant (Ki) in assay [1], in assay [2] and in [3] was above 10 µM in each case.

With `CCN(CC)C(C)C(=O)c1cccc(Cl)c1` (stereo not drawn), the Activity in the assay on Rattus norvegicus [4] was 98.6%; with Rattus norvegicus [6] it was 16.7%; in the assay with Rattus norvegicus [7], 74.8%; with Mus musculus [8] it was 90%; with Rattus norvegicus [10], 0%. In assay [2], this compound registered a Ki above 10 µM. Moreover, the Time in the assay with Mus musculus [5] was 130 min. Besides, the median effective dose (ED50) with Rattus norvegicus [9] is 3.2 mg/kg. Moreover, the “Time to peak locomotor stimulation” value with Mus musculus [11] is listed as 20 min.

For the compound `CC(C)(C)NC1CCc2ccc(Cl)cc2C1=O` (stereo not drawn), the Ki in assay [1], in assay [2] and in assay [3] was above 10 µM throughout. Moreover, in the assay with Mus musculus [12], the median effective dose (ED50) was 2.6 mg/kg.

As for `CC(C(=O)c1cccc(Cl)c1)N(C)C(C)(C)C` (stereo not drawn), the Activity in the assay with Rattus norvegicus [4] is 49.4%; in the assay with Rattus norvegicus [13] it was 66.7%; in the assay on Rattus norvegicus [7], 75%; in the assay with Mus musculus [8], 95%. Besides, the inhibition constant (Ki) in [1] and in assay [2] was above 10 µM each time. For the same compound, in the assay with Mus musculus [5], the Time is given as 200 min. Moreover, the ED50 in the assay with Mus musculus [12] was found to be 11.7 mg/kg. The “Time to peak locomotor stimulation” value with Mus musculus [11] is recorded as 80 min.

For the compound `Cc1ccc(C(=O)C(C)NC(C)(C)C)cc1Cl` (stereo not drawn), the Time with Mus musculus [5] came to 60 min. Besides, the Activity entry in the assay on Mus musculus [8] was “>=77%”. Besides, the ED50 in the assay with Mus musculus [12] is at least 35.5 mg/kg. In addition, in the assay on Mus musculus [11], the “Time to peak locomotor stimulation” value came to 10 min.

With `CC(NC(C)(C)C)C(O)c1ccccc1` (racemic), the Ki in assay [1] is above 10 µM; in assay [2], 4 µM; in [3], above 10 µM. Moreover, the Time in the assay on Mus musculus [5] came to 390 min. For the same compound, in the assay with Mus musculus [8], the Activity was found to be 41%. In the assay on Mus musculus [11], the “Time to peak locomotor stimulation” value turned out to be 150 min. In addition, the IC50 in [14] was found to be 1.24 µM.

`COC(=O)[C@H]1[C@@H](OC(=O)c2ccccc2)C[C@@H]2CC[C@H]1N2C` [COCAINE]: the Time in the assay with Mus musculus [5] is 40 min. For the same compound, the ED50 in the assay on Rattus norvegicus [9] was 5.9 mg/kg; in the assay with Mus musculus [12], 7.8 mg/kg. Also, the “Time to peak locomotor stimulation” value in the assay with Mus musculus [11] turned out to be 0 min.

Consider `CCCNC(C)C(=O)c1cccc(Cl)c1` (stereo not drawn), for which the Ki in assay [1], in assay [2] and in assay [3] was above 10 µM each time.
